Source: the supplement of paper PMC10307832

How the values were obtained:
Experiment in all cases: relative viability (nuclei count vs DMSO), 5 days (fraction); higher = more cells survive
Selumetinib + Decitabine = compound: Cn1cnc2c(F)c(Nc3ccc(Br)cc3Cl)c(C(=O)NOCCO)cc21 [Selumetinib] + Nc1ncn([C@H]2C[C@H](O)[C@@H](CO)O2)c(=O)n1 [Decitabine] (partner 2 µM)
Summary of the method: (§1)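 After 5 days of treatment, lung cancer cells in 1536-well plates were fixed and stained in a single step (final 0.05% Triton X-100, 1% formaldehyde, 1 ug/ml Hoechst) and their nuclei counted on 4× images. Treatment had been applied by pin tool the day after seeding as one drug alone or as a fixed anchor-drug dose with five library-drug doses (not always all listed) in √10 steps. Relative viability is the nuclei count of treated wells divided by that of vehicle wells, and values are medians of duplicate plates.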

Venetoclax + Olaparib = compound: CC1(C)CCC(CN2CCN(c3ccc(C(=O)NS(=O)(=O)c4ccc(NCC5CCOCC5)c([N+](=O)[O-])c4)c(Oc4cnc5[nH]ccc5c4)c3)CC2)=C(c2ccc(Cl)cc2)C1 [Venetoclax] + O=C(c1cc(Cc2n[nH]c(=O)c3ccccc23)ccc1F)N1CCN(C(=O)C2CC2)CC1 [Olaparib] (partner 8 µM)
Summary of the method: as §1

Venetoclax + Lapatinib = compound: CC1(C)CCC(CN2CCN(c3ccc(C(=O)NS(=O)(=O)c4ccc(NCC5CCOCC5)c([N+](=O)[O-])c4)c(Oc4cnc5[nH]ccc5c4)c3)CC2)=C(c2ccc(Cl)cc2)C1 [Venetoclax] + CS(=O)(=O)CCNCc1ccc(-c2ccc3ncnc(Nc4ccc(OCc5cccc(F)c5)c(Cl)c4)c3c2)o1 [Lapatinib] (partner 2 µM)
Summary of the method: as §1

Selumetinib + Tozasertib = compound: Cn1cnc2c(F)c(Nc3ccc(Br)cc3Cl)c(C(=O)NOCCO)cc21 [Selumetinib] + Cc1cc(Nc2cc(N3CCN(C)CC3)nc(Sc3ccc(NC(=O)C4CC4)cc3)n2)n[nH]1 [Tozasertib] (partner 0.1 µM)
Summary of the method: as §1

Cell Line	relative viability (Selumetinib + Decitabine; first compound 0.02 µM)	relative viability (Selumetinib + Decitabine; first compound 0.06325 µM)	relative viability (Selumetinib + Decitabine; first compound 0.2 µM)	relative viability (Selumetinib + Decitabine; first compound 0.6325 µM)	relative viability (Venetoclax + Olaparib; first compound 0.01 µM)	relative viability (Venetoclax + Olaparib; first compound 0.03162 µM)	relative viability (Venetoclax + Olaparib; first compound 0.1 µM)	relative viability (Venetoclax + Olaparib; first compound 0.3162 µM)	relative viability (Venetoclax + Olaparib; first compound 1 µM)	relative viability (Venetoclax + Lapatinib; first compound 0.01 µM)	relative viability (Venetoclax + Lapatinib; first compound 0.03162 µM)	relative viability (Venetoclax + Lapatinib; first compound 0.1 µM)	relative viability (Venetoclax + Lapatinib; first compound 0.3162 µM)	relative viability (Venetoclax + Lapatinib; first compound 1 µM)	relative viability (Selumetinib + Tozasertib; first compound 0.02 µM)	relative viability (Selumetinib + Tozasertib; first compound 0.06325 µM)	relative viability (Selumetinib + Tozasertib; first compound 0.2 µM)	relative viability (Selumetinib + Tozasertib; first compound 0.6325 µM)
201T	0.795	0.817	0.786	0.824	0.822	0.868	0.811	0.846	0.829	1.07	0.943	0.959	1.02	1.08	0.908	0.928	0.88	0.874
A549	0.305	0.227	0.198	0.267	0.302	0.376	0.311	0.35	0.339	1.05	0.988	1.04	0.998	0.898	–	–	–	–
A-427	0.537	0.575	0.53	0.55	0.709	0.709	0.821	0.657	0.778	0.911	1.02	1.05	1.1	1.13	0.205	0.193	0.168	0.17
ABC-1	1.01	1.08	1.08	1.02	0.711	0.721	0.87	0.641	0.686	1.24	1.17	1.1	1.14	1.13	0.161	0.157	0.139	0.135
BEN	0.704	0.733	0.714	0.731	1.07	1.21	0.97	1.1	1.02	0.745	0.781	0.735	0.626	0.613	0.545	0.442	0.489	0.564
CAL-12T	–	–	–	–	0.675	0.715	0.732	0.709	0.634	0.584	0.74	0.577	0.61	0.679	0.34	0.364	0.301	0.229
COR-L23	0.438	0.418	0.451	0.444	0.331	0.473	0.313	0.382	0.314	0.921	0.957	0.983	0.922	0.938	0.211	0.187	0.171	0.163
COR-L 105	0.637	0.507	0.452	0.45	0.518	0.718	0.709	0.691	0.674	0.418	0.384	0.326	0.355	0.367	0.364	0.316	0.309	0.322
Calu-6	–	–	–	–	0.609	0.619	0.602	0.554	0.546	1.08	1.13	0.94	1	0.97	–	–	–	–
ChaGo-K-1	0.544	0.539	0.48	0.532	0.341	0.48	0.437	0.5	0.439	–	–	–	–	–	0.212	0.237	0.222	0.204
